Data taken from EP0753258B1 (priority 1995, dated 1997).
Where “and” joins values, the source holds several entries; their conditions need not be identical. Equal entries are not always repeated. Where two headings read alike, the source gives them in different places.

Tests used:
Phytophthora infestans [1] = format: in vivo; conditions: 6 days after inoculation, tomatoes
Plasmopara viticola [2] = conditions: in vivo
Phytophthora infestans [3] = conditions: in vivo
Phytophthora infestans [4] = conditions: in vivo; remark: listed apart in the source
Plasmopara viticola [5] = test: Field trial, grape vines, Campinas, Brazil (heavy natural infection); format: in vivo; conditions: grapes
Description: (§1) The results provided by the mixtures were compared with the predicted results that were calculated using the formula set forth by S.R. Colby in Weeds 1967, 15, 20-22 ("Colby's Formula") from the results obtained using each of the compounds individually. The predicted results are also provided in the following Examples.
A field trial was conducted in Campinas, Brazil. Plots each consisted of 4 grape vines, cultivar Maria.
Fungicide treatments were applied at 7-day intervals with a total of 5 applications. N-[3'(1'-chloro-3'-methyl-2'-oxopentan]-3,5-dichloro-4-methylbenzamide was applied as a flowable formulation (23% active ingredient) , 2-cyano-N-((ethylamino)carbonyl)-2-(methoxyimino)acetamide as a wettable powder formulation (CURZATE™, 50WP, DuPont, Wilmington, DE). The two compounds were each applied individually in the manner disclosed above and in combination as an aqueous tank mix of the two compounds.
Evaluation of disease in response to a heavy natural infection was made 6 days after the third application, and 7 days after the fifth application. The Compounds applied and dosage rates, expressed as grams of active ingredient per hectare (Compound Dosage Rate (g/ha)) and the results, expressed as percent disease control in comparison with untreated plots (% Control(Observed)) are set forth below in TABLE 6 for treatment with N-[3'(1'-chloro-3'-methyl-2'-oxopentan]-3,5-dichloro4-methylbenzamide, treatment with 2-cyano-N-((ethylamino)carbonyl)-2-(methoxyimino)acetamide and treatment with mixtures of the two compounds. The results obtained using the mixtures of the two compounds were compared with those predicted by Colby's formula from the results provided by each of the two compounds used individually. The predicted results are set forth below in TABLE 6 as "% Control (Predicted)".

Plasmopara viticola [6] = test: Field trial, grape downy mildew fruit rot, Michigan, U.S.A. (natural infection); format: in vivo; conditions: 12 days after last treatment, 100 g/ha of each compound, grapes; for % Control, Incidence (Observed): downy mildew fruit rot incidence; for % Control, Severity (Observed): downy mildew fruit rot severity (diseased fruit surface area)
Description: as §1
The trial was conducted in the State of Michigan, U.S.A. Plots consisted of 4 grape vines, cultivar Chancellor. Four such plots arranged in randomized blocks were used for each treatment
Fungicide treatments were applied at day 0, and at 13, 28, 43, 55, 71, and 84 days thereafter. N-[3(1'-chloro-3'-methyl-2'-oxopentan]-3,5-dichloro-4-methylbenzamide was applied as a flowable formulation (23% active ingredient) at 100 grams of active ingredient per hectare, and 2-cyano-N-((ethylamino)carbonyl)-2-(methoxyimino)acetamide was applied as a wettable powder formulation (CURZATE™, 50WP, DuPont, Wilmington, DE) at 100 grams of active ingredient per hectare. The two compounds were also applied as an aqueous tank mix of the two compounds at a dosage of 100 grams of active ingredient per hectare of each compound.
Evaluation of disease in response to natural infection was made 12 days after the last treatment The incidence and severity of downy mildew fruit rot was determined for twenty clusters of fruit selected randomly from the middle two vines of each plot Incidence refers to whether or not the cluster was diseased, and severity is the percentage of diseased fruit surface area. The compounds applied (Compound), and the incidence and severity results, expressed as percent disease control in comparison with untreated plots (% Control, Incidence (Observed) and % Control, Severity (Observed), respectively) are set forth below in TABLE 4 for treatment with N-[3'(1'-chloro-3'-methyl-2'-oxopentan]-3,5-dichloro-4-methylbenzamide, treatment with 2-cyano-N-((ethylamino)carbonyl)-2-(methoxyimino)acetamide and treatment with a mixture of the two compounds. The results obtained using the mixture of the two compounds were compared with predicted results that were calculated using Colby's formula from the results obtained using each of the compounds individually. The predicted results for incidence and severity are set forth below in TABLE 4 as "% Control, Incidence (Predicted)" and "% Control, Severity (Predicted)", respectively.

Compound	% Control (Observed) (Phytophthora infestans [1]; single compound 0.4 ppm)	% Control (Observed) (Phytophthora infestans [1]; single compound 0.8 ppm)	% Control (Observed) (Plasmopara viticola [2])	% Control (Observed) (Phytophthora infestans [3])	% Control by Evaluation Interval 5 weeks (Phytophthora infestans [4])	% Control by Evaluation Interval 6 weeks (Phytophthora infestans [4])	% Control by Evaluation Interval 7 weeks (Phytophthora infestans [4])	% Control, Incidence (Observed) (Plasmopara viticola [6])	% Control, Severity (Observed) (Plasmopara viticola [6])	also measured
COc1ccc(C(=CC(=O)N2CCOCC2)c2ccc(Cl)cc2)cc1OC [Compound D, (E,Z) 4-(3-(4-chlorophenyl)-3-(3,4-dimethoxyphenyl)acryloyl) morpholine]	0%	10%	–	–	–	–	–	–	–	% Control (Observed) (Phytophthora infestans [1]; single compound 1.5 ppm): 35%
manganese-zinc ethylenebis(dithiocarbamate) [reference compound]	–	–	61%	69%	99% and 98%	98% and 88%	95% and 80%	–	–	% Control by Evaluation Interval 8 weeks (Phytophthora infestans [4]): 87% and 62%
CCC(C)(NC(=O)c1cc(Cl)c(C)c(Cl)c1)C(=O)CCl (stereo not drawn) [Compound A]	0%	20%	87%	23%	99% and 98%	97% and 81%	88% and 56%	43.7%	75.3%	% Control (Observed) (Plasmopara viticola [5]; Seven days after the fifth treatment, A 100 g/ha alone): 21.4%; % Control (Observed) (Plasmopara viticola [5]; Seven days after the fifth treatment, A 200 g/ha alone): 26.1%; % Control (Observed) (Plasmopara viticola [5]; Six days after the third treatment, A 100 g/ha alone): 24.3%; % Control (Observed) (Plasmopara viticola [5]; Six days after the third treatment, A 200 g/ha alone): 21.8%; % Control by Evaluation Interval 9 weeks (Phytophthora infestans [4]): 16% and 11%; % Control by Evaluation Interval 10 weeks (Phytophthora infestans [4]): 11% and 6%; % Control by Evaluation Interval 11 weeks (Phytophthora infestans [4]): 1% and 0%
CCNC(=O)NC(=O)C(C#N)=NOC [Compound C, 2-cyano-N-((ethylamino)carbonyl)-2-(methoxyimino)acetamide]	–	–	–	–	–	–	–	2.5%	34.6%	% Control (Observed) (Plasmopara viticola [5]; Seven days after the fifth treatment, C 25 g/ha alone): 66.7%; % Control (Observed) (Plasmopara viticola [5]; Seven days after the fifth treatment, C 50 g/ha alone): 59.6%; % Control (Observed) (Plasmopara viticola [5]; Seven days after the fifth treatment, C 100 g/ha alone): 64.3%; % Control (Observed) (Plasmopara viticola [5]; Six days after the third treatment, C 25 g/ha alone): 71.3%; % Control (Observed) (Plasmopara viticola [5]; Six days after the third treatment, C 50 g/ha alone): 64.8%; % Control (Observed) (Plasmopara viticola [5]; Six days after the third treatment, C 100 g/ha alone): 74.1%
